In patent US6451341B1, “Time release formulation of vitamins, minerals and other beneficial supplements” (priority 1990, dated 2002):

Key:
skin tumors = assay: Effects of antioxidants on skin tumor promotion (DMBA initiation + TPA promotion), antioxidants applied with TPA; assay type: in vivo, mice (SENCAR); settings: 30 weeks
Text: In one important aspect of the present invention, the formulation includes at least one antioxidant. The antioxidant is preferably selected from the group consisting of butylated hydroxyanisole, butylated hydroxytoluene and propyl gallate. The inventive formulation may include one, or, more preferably, several of the preferred antioxidants in combination. According to one embodiment, the inventive formulation includes butylated hydroxyanisole (BHA) or butylated hydroxytoluene (BHT), and propyl gallate. BHA, BHT and propyl gallate are all antioxidants used to stabilize cosmetic, pharmaceutical, and food products. It has been reported that these agents protect normal cells against radiation, free radicals, toxic chemicals and chemical carcinogens. […] The SENCAR mouse is a valid testing system for the ability of a compound to inhibit tumor initiation and promotion. A good dose-response relationship exists for 7, 12-dimethylbenzanthracene to initiate skin tumors in these mice and they are sensitive to TPA (12-0-tetradecanoylphorbol-13-acetate) promotion [Slaga(1983) “Multistage Skin Carcinogenesis and Specificity of Inhibitors” in: Modulation and Mediation of Cancer by Vitamins, pp. 10-23.]. Further, the preferred antioxidants of the present invention have been reported to protect against cardiovascular disorders, enhance immune function and increase longevity. The preferred antioxidants of the present invention work synergistically with several vitamins, minerals, amino acids, enzymes, and other antioxidants or free radial scavengers included in the formulation of the present invention as will be described in detail below.

skin cancer = assay: Mouse skin carcinogenesis system; assay type: in vivo; settings: given alone
spontaneous tumors = assay: Effects of antioxidants in the diet on aging and spontaneous tumor formation in mice; assay type: in vivo; settings: 0.5% in normal laboratory chow; 100 SENCAR mice per group
Text: Table 2 illustrates the effects of certain antioxidant components of the present formulation on all the known spontaneous tumor formations and longevity in mice.

[1] = 0.5 mg applied simultaneously with TPA 2x/wk, 30 female SENCAR mice

| Molecule | Tumor Response (% Inhibition) (skin tumors; [1]) | Increase in Lifespan (%) (spontaneous tumors) | Spontaneous Tumor Formation (% of Control) (spontaneous tumors) | also measured |
| --- | --- | --- | --- | --- |
| Vitamin E | – | – | – | Tumor Response (% Inhibition) (skin tumors; 0.1 mg applied simultaneously with TPA 2x/wk): 25 % Inhibition |
| CC1=C(/C=C/C(C)=C/C=C/C(C)=C/C=C/C=C(C)/C=C/C=C(C)/C=C/C2=C(C)CCCC2(C)C)C(C)(C)CCC1 [B-carotene, Beta carotene] | 20 | – | – | inhibitory activity in mouse skin carcinogenesis (skin cancer): lack of an inhibitory activity |
| [Se] [Selenium] | – | – | – | Tumor Response (% Inhibition) (skin tumors; 0.004 mg applied simultaneously with TPA 2x/wk): 23 % Inhibition |
| O=C1O[C@H]([C@@H](O)CO)C(O)=C1O [Vitamin C] | 30 | – | – | – |
| Cc1cc(C(C)(C)C)c(O)c(C(C)(C)C)c1 [BHT, butylated hydroxytoluene] | 32 | 124 | 56 % of Control | – |
| CCCOC(=O)c1cc(O)c(O)c(O)c1 [Propyl gallate, propyl gallate] | 40 | 127 | 62 % of Control | – |
| COc1ccc(O)c(C(C)(C)C)c1 [BHA, butylated hydroxyanisole] | 35 | 132 | 46 % of Control | – |
